# Patent US20230181614A1, “ADMINISTRATION OF CITICOLINE TO IMPROVE COGNITIVE PERFORMANCE, ATTENTIONAL PERFORMANCE, AND MOTOR FUNCTION” (KYOWA HAKKO BIO CO., LTD., priority 2014, published 2023)
# System: Healthy subjects, ages 13-18
# Test: General Questionnaire
# Format: in vivo, human
# Settings: 250 mg/day
# Description: Study participants were screened by telephone prior to study enrollment. Healthy subjects, ages 13-18, with no significant medical conditions and no history of co-morbid psychiatric disorder, current Axis I or II diagnosis, or previous participation in a pharmacotherapeutic trial, were selected. Use of any psychotropic medication or any previous head injury resulting in loss of consciousness for 5 or more minutes were used as exclusion criteria. While no participant met criteria for a neuropsychiatric disorder at enrollment, clinical assessments were still completed throughout the study to evaluate changes in mood state. In addition, self-reports of sleep habits, lifestyle, and exercise routines were also administered at baseline as well as at each study visit to assess changes in health habits during study participation. Following the completion of Visit 1 assessment, participants were given their 28-day supply of citicoline (250 mg or 500 mg) or placebo, which was randomly assigned. They were instructed to take one capsule a day every day for the next 28 days. Visit 2 occurred fourteen days after Visit 1. At Visit 2, the remaining study pills were counted and participant dosage calendars were checked to ensure compliance with the protocol. Additional neuropsychological measures and clinical assessments were administered during this visit. Participants returned for Visit 3 fourteen days later, on the 28th day of their study participation. The pill bottle and the dosage calendar were collected from each participant. Urine and blood were again obtained. Participants also participated in similar clinical and neuropsychological testing and clinical measures that were given during visit 1. The General Questionnaire and Exercise and Life Style Questionnaire are self-report questionnaires designed to assess a variety of symptoms, behaviors, and self-perceptions, including mood, complexion, exercise, food, and alcohol habits of each of the participants. The General Questionnaire was administered during each of the three study visits; the Exercise and Life Style Questionnaire was administered during each of the three study visits. The General Questionnaire included five summary categories (Vision, Depression, Attention, Sleep, and Complexion) each of which had multiple individual items. Within and between group analyses are reported below for each of the summary categories.
compound,measurement,setting,value
"C[N+](C)(C)CCOP(=O)(O)OP(=O)([O-])OC[C@H]1O[C@@H](n2ccc(N)nc2=O)[C@H](O)[C@@H]1O [citicoline, Cytidine 5′-diphosphocholine]",Attention Total V3-V1 Difference Mean,,-5.58
same,Complexion Total V3-V1 Difference Mean,,-0.67
same,Depression Total V3-V1 Difference Mean,,-7.37
same,Sleep Total V3-V1 Difference Mean,,-5.59
same,Vision Total V3-V1 Difference Mean,,-2.26
same,Attention Total V3 Mean,Visit 3,38.48
same,Complexion Total V3 Mean,Visit 3,3.96
same,Depression Total V3 Mean,Visit 3,21.04
same,Sleep Total V3 Mean,Visit 3,18.96
same,Vision Total V3 Mean,Visit 3,6.59
same,"General Questionnaire Attention Q13, Mean",V1 (baseline),3.52
same,"General Questionnaire Attention Q14, Mean",V1 (baseline),2.37
same,"General Questionnaire Attention Q15, Mean",V1 (baseline),3.89
same,"General Questionnaire Attention Q16, Mean",V1 (baseline),3.19
same,"General Questionnaire Attention Q17, Mean",V1 (baseline),3.30
same,"General Questionnaire Attention Q18, Mean",V1 (baseline),2.63
same,"General Questionnaire Attention Q19, Mean",V1 (baseline),6.59
same,"General Questionnaire Attention Q20, Mean",V1 (baseline),3.48
same,"General Questionnaire Attention Q21, Mean",V1 (baseline),3.22
same,"General Questionnaire Attention Q22, Mean",V1 (baseline),4.00
same,"General Questionnaire Attention Q23, Mean",V1 (baseline),4.15
same,"General Questionnaire Attention Q24, Mean",V1 (baseline),3.67
same,"General Questionnaire Attention Total, Mean",V1 (baseline),44.31
same,"General Questionnaire Complexion Q33, Mean",V1 (baseline),2.78
same,"General Questionnaire Complexion Q34, Mean",V1 (baseline),1.85
same,"General Questionnaire Complexion Total, Mean",V1 (baseline),4.63
same,"General Questionnaire Depression Q4, Mean",V1 (baseline),2.59
same,"General Questionnaire Depression Q5, Mean",V1 (baseline),3.26
same,"General Questionnaire Depression Q6, Mean",V1 (baseline),2.85
same,"General Questionnaire Depression Q7, Mean",V1 (baseline),4.26
same,"General Questionnaire Depression Q8, Mean",V1 (baseline),2.74
same,"General Questionnaire Depression Q9, Mean",V1 (baseline),3.74
same,"General Questionnaire Depression Q10, Mean",V1 (baseline),2.85
same,"General Questionnaire Depression Q11, Mean",V1 (baseline),2.85
same,"General Questionnaire Depression Q12, Mean",V1 (baseline),3.26
same,"General Questionnaire Depression Total, Mean",V1 (baseline),28.41
same,"General Questionnaire Sleep Q25, Mean",V1 (baseline),3.19
same,"General Questionnaire Sleep Q26, Mean",V1 (baseline),2.78
same,"General Questionnaire Sleep Q27, Mean",V1 (baseline),3.26
same,"General Questionnaire Sleep Q28, Mean",V1 (baseline),3.63
same,"General Questionnaire Sleep Q29, Mean",V1 (baseline),3.48
same,"General Questionnaire Sleep Q30, Mean",V1 (baseline),2.11
same,"General Questionnaire Sleep Q31, Mean",V1 (baseline),1.96
same,"General Questionnaire Sleep Q32, Mean",V1 (baseline),4.15
same,"General Questionnaire Sleep Total, Mean",V1 (baseline),24.56
same,"General Questionnaire Vision Q1, Mean",V1 (baseline),3.44
same,"General Questionnaire Vision Q2, Mean",V1 (baseline),3.26
same,"General Questionnaire Vision Q3, Mean",V1 (baseline),2.15
same,"General Questionnaire Vision Total, Mean",V1 (baseline),8.85
same,"General Questionnaire Attention Q13, Mean",V3 (day 28),2.74
same,"General Questionnaire Attention Q14, Mean",V3 (day 28),2.48
same,"General Questionnaire Attention Q15, Mean",V3 (day 28),3.15
same,"General Questionnaire Attention Q16, Mean",V3 (day 28),2.63
same,"General Questionnaire Attention Q17, Mean",V3 (day 28),2.48
same,"General Questionnaire Attention Q18, Mean",V3 (day 28),2.26
same,"General Questionnaire Attention Q19, Mean",V3 (day 28),6.41
same,"General Questionnaire Attention Q20, Mean",V3 (day 28),3.22
same,"General Questionnaire Attention Q21, Mean",V3 (day 28),3.15
same,"General Questionnaire Attention Q22, Mean",V3 (day 28),3.35
same,"General Questionnaire Attention Q23, Mean",V3 (day 28),3.70
same,"General Questionnaire Attention Q24, Mean",V3 (day 28),2.96
same,"General Questionnaire Attention Total, Mean",V3 (day 28),38.73
same,"General Questionnaire Complexion Q33, Mean",V3 (day 28),2.30
same,"General Questionnaire Complexion Q34, Mean",V3 (day 28),1.67
same,"General Questionnaire Complexion Total, Mean",V3 (day 28),3.96
same,"General Questionnaire Depression Q4, Mean",V3 (day 28),1.81
same,"General Questionnaire Depression Q5, Mean",V3 (day 28),2.30
same,"General Questionnaire Depression Q6, Mean",V3 (day 28),2.00
same,"General Questionnaire Depression Q7, Mean",V3 (day 28),3.33
same,"General Questionnaire Depression Q8, Mean",V3 (day 28),1.81
same,"General Questionnaire Depression Q9, Mean",V3 (day 28),2.89
same,"General Questionnaire Depression Q10, Mean",V3 (day 28),2.07
same,"General Questionnaire Depression Q11, Mean",V3 (day 28),2.15
same,"General Questionnaire Depression Q12, Mean",V3 (day 28),2.67
same,"General Questionnaire Depression Total, Mean",V3 (day 28),21.04
same,"General Questionnaire Sleep Q25, Mean",V3 (day 28),2.33
same,"General Questionnaire Sleep Q26, Mean",V3 (day 28),2.15
same,"General Questionnaire Sleep Q27, Mean",V3 (day 28),2.07
same,"General Questionnaire Sleep Q28, Mean",V3 (day 28),2.78
same,"General Questionnaire Sleep Q29, Mean",V3 (day 28),2.19
same,"General Questionnaire Sleep Q30, Mean",V3 (day 28),1.96
same,"General Questionnaire Sleep Q31, Mean",V3 (day 28),1.93
same,"General Questionnaire Sleep Q32, Mean",V3 (day 28),3.56
same,"General Questionnaire Sleep Total, Mean",V3 (day 28),18.96
same,"General Questionnaire Vision Q1, Mean",V3 (day 28),2.33
